# pKi: −log10 of the molar value. Non-standard residues stand in square brackets, D forms with d. Residues, ends and D or L forms follow the SMILES beside them. *: point of attachment. AFC = O=c1cc(C(F)(F)F)c2ccc(N*)cc2o1; pNA = O=[N+]([O-])c1ccc(N*)cc1; Cbz = O=C(OCc1ccccc1)*; Sar = CNCC(=O)O
# Tested on: human trypsin
# Experiment: Hydrolysis of p-nitroanilide substrate by human trypsin (405 nm)
# Assay type: biochemical
# Settings: substrate for human trypsin, 25° C., pH 7.4, 1 mM CaCl2
# Description: (§1) Assays of human a-thrombin and human trypsin were performed at 25° C. in 0.05 M TRIS buffer pH 7.4, 0.15 M NaCl, 0.1% PEG. Trypsin assays also contained 1 mM CaCl2.
row,SMILES,Km [µM]
1,"CNCC(=O)N1CCC[C@H]1C(=O)N[C@@H](CCCNC(=N)N)C(=O)Nc1ccc([N+](=O)[O-])cc1 [sar-PR-pna, sarcosine-Pro-Arg-p-nitroanilide] (H-[Sar]-Pro-Arg-pNA)",59

# Tested on: thrombin
# Experiment: Thrombin catalyzed hydrolysis of fluorogenic substrate (fluorescence at 500 nm)
# Assay type: biochemical, human
# Settings: fluorogenic substrate for thrombin, excitation at 400 nm
# Description: as §1
# (§2) In certain studies with potent inhibitors (Ki <10 nM) where the degree of inhibition of thrombin was high, a more sensitive activity assay was employed. […] Concentrations of stock solutions of Z-GPR-afc were determined from measurements of absorbance at 380 nm of the 7-amino-4-trifluoromethylcoumarin produced upon complete hydrolysis of an aliquot of the stock solution by thrombin.
row,Km [µM],SMILES
1,27,"N=C(N)NCCC[C@H](NC(=O)[C@@H]1CCCN1C(=O)CNC(=O)OCc1ccccc1)C(=O)Nc1ccc2c(C(F)(F)F)cc(=O)oc2c1 [Z-GPR-afc, Cbz-Gly-Pro-Arg-7-amino-4-trifluoromethylcoumarin] (Cbz-Gly-Pro-Arg-{AFC})"

# Biological target: T1, human a-thrombin (Homo sapiens, UniProt P00734)
# T1 construct: human a-thrombin
# Experiment: In vitro assay for determining proteinase inhibition (thrombin Ki)
# Assay type: biochemical
# Settings: 25° C., 0.05 M TRIS buffer pH 7.4, 0.15 M NaCl, 0.1% PEG
# Description: In vitro Assay for Determining Proteinase Inhibition
# as §1, §2
# Activity assays were performed by diluting a stock solution of substrate at least tenfold to a final concentration <0.5 Km into a solution containing enzyme or enzyme equilibrated with inhibitor. Times required to achieve equilibration between enzyme and inhibitor were determined in control experiments. Initial velocities of product formation in the absence (V0) or presence of inhibitor (Vi) were measured. Assuming competitive inhibition, and that unity is negligible compared Km /[S], […] (where [S], [I], and e respectively represent the total concentrations, of substrate, inhibitor and enzyme), the equilibrium constant (Ki) for dissociation of the inhibitor from the enzyme can be obtained from the dependence of V0 /Vi on [I] shown in equation 1.
row,SMILES,pKi
1,CC(C)[C@@H](CCNc1ccncc1)NC(=O)CNS(=O)(=O)Cc1ccccc1 [(CH3)2 CH2 -- 1 BnSO2 -- H],< 6.00
2,O=C(CNS(=O)(=O)c1ccc(Cl)cc1)N[C@H](CNc1ccncc1)Cc1ccccc1 [Bn 0 4-ClPhSO2 -- H],< 6.00
3,CC(C)(C)OC(=O)NCC(=O)N[C@H](CNc1ccncc1)Cc1ccccc1 [Bn 0 Boc H],< 6.00
4,O=C(CNS(=O)(=O)c1ccccc1)N[C@H](CNc1ccncc1)Cc1ccccc1 [Bn 0 PhSO2 -- H],< 6.00
5,"COc1cc(C)c(S(=O)(=O)NCC(=O)N[C@H](CCNc2ccncc2)Cc2ccccc2)c(C)c1C [Bn 1 4-OCH3-2,3,6-MePhSO2 -- H]",> 6.00
6,C[C@@H](NS(=O)(=O)Cc1ccccc1)C(=O)N[C@H](CCNc1ccncc1)Cc1ccccc1 [Bn 1 BnSO2 -- (R)-CH3],< 6.00
7,CS(=O)(=O)CC[C@H](NS(=O)(=O)Cc1ccccc1)C(=O)N[C@H](CCNc1ccncc1)Cc1ccccc1 [Bn 1 BnSO2 -- (S)- CH2 CH2 SO2 CH3],> 6.00
8,CSCC[C@H](NS(=O)(=O)Cc1ccccc1)C(=O)N[C@H](CCNc1ccncc1)Cc1ccccc1 [Bn 1 BnSO2 -- (S)-CH2 CH2 SCH3],> 6.00
9,C[C@H](NS(=O)(=O)Cc1ccccc1)C(=O)N[C@H](CCNc1ccncc1)Cc1ccccc1 [Bn 1 BnSO2 -- (S)-CH3],> 6.00
10,O=C(CNS(=O)(=O)Cc1ccccc1)N[C@H](CCNc1ccncc1)Cc1ccccc1 [Bn 1 BnSO2 -- H],> 6.00
11,NC(Cc1ccc(Cl)cc1)C(=O)N[C@H](CCNc1ccncc1)Cc1ccccc1 (some centres unmarked) [Bn 1 H 4-ClBn--],> 6.00
12,O=C(CNS(=O)(=O)C=Cc1ccccc1)N[C@H](CCNc1ccncc1)Cc1ccccc1 [Bn 1 PhCH=CHSO2 -- H],> 6.00
13,O=C(CNS(=O)(=O)c1ccccc1)N[C@H](CNc1ccncc1)CC1CCCCC1 [c-hexylCH2 -- 0 PhSO2 -- H],< 6.00

# More lines, now with the values ahead:
row,pKi,SMILES
1,> 6.00,"CC(C)[C@@H](CCNc1ccncc1)NC(=O)CNS(=O)(=O)c1ccc(Cl)c(Cl)c1 [(CH3)2 CH2 -- 1 3,4-di-Cl--PhSO2 -- H]"
2,> 6.00,O=C(CNS(=O)(=O)c1ccc2ccccc2c1)N[C@H](CCNc1ccncc1)Cc1ccccc1 [Bn 1 2-naphthSO2 -- H]
3,> 6.00,"O=C(CNS(=O)(=O)Cc1ccc(Cl)c(Cl)c1)N[C@H](CCNc1ccncc1)Cc1ccccc1 [Bn 1 3,4-di-Cl--BnSO2 -- H]"
4,> 6.00,"O=C(N[C@H](CCNc1ccncc1)Cc1ccccc1)[C@H](CO)NS(=O)(=O)c1ccc(Cl)c(Cl)c1 [Bn 1 3,4-di-Cl--PhSO2 -- (S)-CH2 OH]"
5,> 6.00,"O=C(CNS(=O)(=O)c1ccc(Cl)c(Cl)c1)N[C@H](CCNc1ccncc1)Cc1ccccc1 [Bn 1 3,4-di-Cl--PhSO2 -- H]"
6,> 6.00,O=C(CNS(=O)(=O)Cc1ccc(C(F)(F)F)cc1)N[C@H](CCNc1ccncc1)Cc1ccccc1 [Bn 1 4-CF3 --BnSO2 -- H]
7,> 6.00,O=C(CNS(=O)(=O)Cc1ccc(Cl)cc1)N[C@H](CCNc1ccncc1)Cc1ccccc1 [Bn 1 4-Cl--BnSO2 -- H]
8,> 6.00,O=C(CNS(=O)(=O)c1ccc(Cl)cc1)N[C@H](CCNc1ccncc1)Cc1ccccc1 [Bn 1 4-Cl--PhSO2 -- H]

# From patent publication US6133297A, “Thrombin inhibitors” (Merck & Co., Inc., priority 1998, dated 2000)
